Results published in ChEMBL document CHEMBL1126360, “-Amino acid analogues as mechanism-based inactivators of -aminobutyric acid aminotransferase” (Bioorg Med Chem Lett, 1992).

How the values were obtained:
[1] = target: 4-aminobutyrate aminotransferase, mitochondrial (Sus scrofa) (UniProt P80147); assay: Rate constants for inactivation at infinite concentration for inactivation of Gamma-amino-N-butyrate transaminase
[2] = target: 4-aminobutyrate aminotransferase, mitochondrial (Sus scrofa, UniProt P80147); assay: Apparent dissociation constants for inactivation of Gamma-amino-N-butyrate transaminase
Chain of 4-aminobutyrate aminotransferase, mitochondrial (P80147 whole entry): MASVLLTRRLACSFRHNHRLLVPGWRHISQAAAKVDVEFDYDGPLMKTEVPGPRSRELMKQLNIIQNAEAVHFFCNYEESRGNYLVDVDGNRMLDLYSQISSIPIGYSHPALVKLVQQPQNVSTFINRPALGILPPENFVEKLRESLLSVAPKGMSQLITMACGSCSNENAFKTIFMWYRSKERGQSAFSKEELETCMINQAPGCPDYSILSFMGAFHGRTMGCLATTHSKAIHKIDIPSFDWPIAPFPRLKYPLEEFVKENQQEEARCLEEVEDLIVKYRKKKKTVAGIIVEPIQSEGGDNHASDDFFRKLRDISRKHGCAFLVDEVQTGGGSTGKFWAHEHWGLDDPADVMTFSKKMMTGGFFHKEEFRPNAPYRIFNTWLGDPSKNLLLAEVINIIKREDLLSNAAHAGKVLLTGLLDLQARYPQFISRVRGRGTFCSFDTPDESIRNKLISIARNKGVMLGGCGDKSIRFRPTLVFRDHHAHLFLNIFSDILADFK

Chain of 4-aminobutyrate aminotransferase, mitochondrial (Sus scrofa) (P80147 whole entry): as above

SMILES | K inact [1] [min⁻¹] | Ki [2] [mM]
N[C@@H](COS(=O)(=O)O)C(=O)O | 0.0055 | 2.4
C=C[C@](C)(N)C(=O)O | 8.5e-05 | 12.8
C[C@](N)(CF)C(=O)O | 0.00059 | 6.8
C[C@](N)(CCl)C(=O)O | 0.00093 | 6.5
C[C@](N)(COP(=O)(O)O)C(=O)O | 0.0014 | 5.7
